Laboratory results reported in patent US8067603B2 (priority 2003, dated 2011).
Values joined by “and” are separate entries in the source; they are usually repeats but may differ in a detail not shown here. Equal values may be shown once.

Columns and labels:
[1] = test system: Male Wistar rats; details: rat, in vivo
[2] = test system: rats; details: single i.v. dose 10 minutes before agonist: J-113397 1 mg/kg, naloxone 2 mg/kg

| SMILES | effect on food intake versus the vehicle treated group ([1]; ip) | increase in food intake: antagonism by the opiate receptor antagonist naloxone ([1]; ip) | Mean ± S.E.M. food intake 120 min after ligand administration [1] | effect on the nociceptin-induced decrease in blood pressure [2] |
| --- | --- | --- | --- | --- |
| CN1CC[C@]23c4c5ccc(O)c4O[C@H]2[C@@H](O)C=C[C@H]3[C@H]1C5 [Morphine, morphine] | dose-dependent increase in food-intake | antagonized | – | – |
| C=CCN1CC[C@]23c4c5ccc(O)c4O[C@H]2C(=O)CC[C@@]3(O)[C@H]1C5 [naloxone] | no effect on food intake | – | 0.09 ± 0.09 g and 0.05 ± 0.001 g | without effect |
